Earlier results on 6 compounds are cited in US20230372216A1, “METHOD FOR DYEING KERATINOUS MATERIAL, COMPRISING THE USE OF AN ORGANOSILICON COMPOUND, A DYEING COMPOUND, A SEALING REAGENT AND A PRE-TREATMENT AGENT” (Henkel AG & Co. KGaA, priority 2020, published 2023).

The conditions of the series: 25° C.
As to `O=S(=O)([O-])c1ccc(N=Nc2c(O)ccc3ccccc23)cc1.[Na+]` [Acid Orange 7, sodium salt of 4-[(2-hydroxy-1-naphthyl)azo]benzene sulphonate], the solubility in water result is reported as “more than 7 g/L”.
As for “sodium salts of mono- and disulfonic acids of 2-(2-quinolyl)-1H-indene-1,3(2H)-dione [Acid Yellow 3]”, the solubility in water is given as 20 g/L.
Turning to `O=C([O-])c1c(Cl)c(Cl)c(Cl)c(Cl)c1-c1c2c(Br)cc(=O)c(Br)c-2oc2c(Br)c(O)cc(Br)c12.O=C([O-])c1c(Cl)c(Cl)c(Cl)c(Cl)c1-c1c2c(Br)cc(=O)c(Br)c-2oc2c(Br)c(O)cc(Br)c12.[Na+].[Na+]` [Acid Red 92, disodium salt of 3,4,5,6-tetrachloro-2-(1,4,5,8-tetrabromo-6-hydroxy-3-oxoxanthen-9-yl)benzoic acid], the solubility in water entry was “greater than 10 g/L”.
`O=C([O-])C1=NN(c2ccc(S(=O)(=O)[O-])cc2)C(=O)C1N=Nc1ccc(S(=O)(=O)[O-])cc1.[Na+].[Na+].[Na+]` (stereo not drawn) [Acid Yellow 23, trisodium salt of 4,5-dihydro-5-oxo-1-(4-sulfophenyl)-4-((4-sulfophenyl)azo)-1H-pyrazole-3-carboxylic acid]: the “solubility in water (in words)” value is given as “highly soluble in water”.
Turning to `CCN(Cc1cccc(S(=O)(=O)[O-])c1)c1ccc(C(=C2C=CC(=[N+](CC)Cc3cccc(S(=O)(=O)[O-])c3)C=C2)c2ccccc2S(=O)(=O)[O-])cc1.[Na+].[Na+]` [Acid Blue 9], the solubility in water entry was “more than 20 wt. %”.
In the case of `Nc1cc(S(=O)(=O)[O-])cc2cc(S(=O)(=O)[O-])c(N=Nc3ccccc3)c(O)c12.[Na+].[Na+]` [Acid Red 33, disodium salt of 5-amino-4-hydroxy-3-(phenylazo)-naphthalene-2,7-disulphonate], the solubility in water is 2.5 g/L.
